Laboratory results reported in ChEMBL document CHEMBL4840375, “Ring A/B-Modified 17β-Hydroxywithanolide Analogues as Antiproliferative Agents for Prostate Cancer and Potentiators of Immunotherapy for Renal Carcinoma and Melanoma” (J Nat Prod, 2021).

Columns and labels:
CWR22R = test: Antiproliferative activity against human 22Rv1 cells assessed as inhibition of cell proliferation incubated for 72 hrs by MTT assay; format: functional, cell-based; details: 22Rv1, 72 h
M14 [1] = test: Antiproliferative activity against human M14 cells assessed as inhibition of cell proliferation incubated for 72 hrs by MTT assay; format: functional, cell-based; details: M14, 72 h
LNCaP = test: Antiproliferative activity against human LNCaP cells assessed as inhibition of cell proliferation incubated for 72 hrs by MTT assay; format: functional, cell-based
HFF = test: Cytotoxicity against human HFF cells assessed as reduction in cell viability incubated for 72 hrs by MTT assay; format: cell-based
SK-MEL-28 [2] = test: Antiproliferative activity against human SK-MEL-28 cells assessed as inhibition of cell proliferation incubated for 72 hrs by MTT assay; format: functional, cell-based; details: SK-MEL-28, 72 h
ACHN [3] = test: Antiproliferative activity against human ACHN cells assessed as inhibition of cell proliferation incubated for 72 hrs by MTT assay; format: functional, cell-based
M14 [4] = test: Potentiation of poly I:C-induced antiproliferative activity against human M14 cells assessed as reduction in cell numbers by measuring IC50 pretreated with compound for 2 hrs followed by poly I:C addition and measured after 48 hrs by MTT assay; format: functional, cell-based; further: test concentration or dose not given here
SK-MEL-28 [5] = test: Antiproliferative activity against human SK-MEL-28 cells assessed as inhibition of cell proliferation incubated for 48 hrs by MTT assay; format: functional, cell-based; details: SK-MEL-28, 48 h
M14 [6] = test: Antiproliferative activity against human M14 cells assessed as inhibition of cell proliferation incubated for 48 hrs by MTT assay; format: functional, cell-based; details: M14, 48 h
SK-MEL-28 [7] = test: Potentiation of poly I:C-induced antiproliferative activity against human SK-MEL-28 cells assessed as reduction in cell numbers by measuring IC50 pretreated with compound for 2 hrs followed by poly I:C addition and measured after 48 hrs by MTT assay; format: functional, cell-based; further: test concentration or dose not given here
ACHN [8] = test: Antiproliferative activity against human ACHN cells assessed as inhibition of cell proliferation incubated for 24 hrs by MTT assay; format: functional, cell-based
ACHN [9] = test: Potentiation of TRAIL-induced antiproliferative activity against human ACHN cells assessed as reduction in cell numbers by measuring IC50 pretreated with compound for 2 hrs followed by TRAIL addition and measured after 24 hrs by MTT assay; format: functional, cell-based; further: test concentration or dose not given here

Structure (SMILES) | IC50 (CWR22R) | IC50 (M14 [1]) | IC50 (LNCaP) | IC50 (HFF) | IC50 (SK-MEL-28 [2]) | IC50 (ACHN [3]) | IC50 (M14 [4]) | IC50 (SK-MEL-28 [5]) | IC50 (M14 [6]) | IC50 (SK-MEL-28 [7]) | IC50 (ACHN [8]) | IC50 (ACHN [9])
CC(=O)OC[C@]12CC[C@H]3[C@@H](CC=C4CCCC(=O)[C@@]43C)[C@@]1(O)CC[C@@]2(O)[C@@](C)(O)C1CC(C)=C(C)C(=O)O1 (stereo not given in full) | > 5 µM | > 5 µM | > 5 µM | > 5 µM | > 5 µM | > 5 µM |  |  |  |  |  | 
CC(=O)OC[C@]12CC[C@H]3[C@@H](C[C@H]4O[C@]45[C@@H](O)C=CC(=O)[C@]35C)[C@]1(O)CC[C@@]2(O)[C@@](C)(O)C1CC(C)=C(C)C(=O)O1 (stereo not given in full) | 1.53 µM | > 5 µM | 3.52 µM | > 5 µM | > 5 µM | > 5 µM | > 5 µM | > 5 µM | > 5 µM | 4.61 µM |  | 
CC(=O)OC[C@]12CC[C@H]3[C@@H](CC=C4[C@@H](O)C=CC(=O)[C@@]43C)[C@]1(O)CC[C@@]2(O)[C@@](C)(O)C1CC(C)=C(C)C(=O)O1 (stereo not given in full) | 0.08 µM | 0.45 µM | 0.35 µM | > 5 µM |  |  |  |  |  |  |  | 
CC(=O)OC[C@]12CC[C@H]3[C@@H](C[C@H](OC(C)=O)[C@]45O[C@H]4C=CC(=O)[C@]35C)[C@]1(O)CC[C@@]2(O)[C@@](C)(O)C1CC(C)=C(C)C(=O)O1 (stereo not given in full) | 3.08 µM | > 5 µM | > 5 µM | > 5 µM | > 5 µM | > 5 µM |  |  |  |  |  | 
CC(=O)OC[C@]12CC[C@H]3[C@@H](C[C@@H]4O[C@@]45CC=CC(=O)[C@]35C)[C@]1(O)CC[C@@]2(O)[C@@](C)(O)C1CC(C)=C(C)C(=O)O1 (stereo not given in full) | 0.58 µM | > 5 µM |  | > 5 µM | > 5 µM | > 5 µM | > 5 µM | > 5 µM | > 5 µM | 4.56 µM |  | 
CC(=O)OC[C@]12CC[C@H]3[C@@H](CC(=O)C4=CC=CC(=O)[C@@]43C)[C@]1(O)CC[C@@]2(O)[C@@](C)(O)C1CC(C)=C(C)C(=O)O1 (stereo not given in full) | 0.5 µM | 2.34 µM | > 5 µM | > 5 µM | > 5 µM | > 5 µM | > 5 µM | > 5 µM | > 5 µM | > 5 µM |  | 
CC(=O)OC[C@]12CC[C@H]3[C@@H](C[C@H](OC(C)=O)C4=CC=CC(=O)[C@@]43C)[C@]1(O)CC[C@@]2(O)[C@@](C)(O)C1CC(C)=C(C)C(=O)O1 (stereo not given in full) | 1.14 µM | > 5 µM | 2 µM | > 5 µM | > 5 µM | > 5 µM |  |  |  |  |  | 
CC(=O)OC[C@]12CC[C@H]3[C@@H](C[C@H](O)[C@]45O[C@H]4C=CC(=O)[C@]35C)[C@]1(O)CC[C@@]2(O)[C@@](C)(O)C1CC(C)=C(C)C(=O)O1 (stereo not given in full) | 0.25 µM | > 5 µM | 0.53 µM | > 5 µM | > 5 µM | > 5 µM |  |  |  |  |  | 
CC(=O)OC[C@]12CC[C@H]3[C@@H](C[C@@H](OC(C)=O)[C@]45O[C@H]4C=CC(=O)[C@]35C)[C@]1(O)CC[C@@]2(O)[C@@](C)(O)C1CC(C)=C(C)C(=O)O1 (stereo not given in full) | 1.37 µM | > 5 µM | > 5 µM | > 5 µM | > 5 µM | > 5 µM |  |  |  |  |  | 
CC(=O)OC[C@]12CC[C@H]3[C@@H](CC=C4[C@@H](OC(C)=O)C=CC(=O)[C@@]43C)[C@]1(O)CC[C@@]2(O)[C@@](C)(O)C1CC(C)=C(C)C(=O)O1 (stereo not given in full) | 0.13 µM | 1.43 µM | 0.68 µM | 2.69 µM |  |  |  |  |  |  |  | 
COc1cccc2c1C(=O)c1c(O)c3c(c(O)c1C2=O)C[C@@](O)(C(=O)CO)C[C@@H]3O[C@H]1C[C@H](N)[C@H](O)[C@H](C)O1 [DOXORUBICIN] |  |  |  | 0.15 µM |  |  |  |  |  |  |  | 
CC(=O)OC[C@]12CC[C@H]3[C@@H](C[C@@H](O)[C@]45O[C@H]4C=CC(=O)[C@]35C)[C@]1(O)CC[C@@]2(O)[C@@](C)(O)C1CC(C)=C(C)C(=O)O1 (stereo not given in full) | > 5 µM | > 5 µM | > 5 µM | > 5 µM | > 5 µM | > 5 µM |  |  |  |  |  | 
CC(=O)OC[C@]12CC[C@H]3[C@@H](CC=C4C=CCC(=O)[C@@]43C)[C@]1(O)CC[C@@]2(O)[C@@](C)(O)C1CC(C)=C(C)C(=O)O1 (stereo not given in full) | 0.97 µM | > 5 µM |  | > 5 µM | > 5 µM | > 5 µM | > 5 µM | > 5 µM | > 5 µM | 4.49 µM |  | 
CC(=O)OC[C@]12CC[C@H]3[C@@H](C[C@@H](O)C4=CC=CC(=O)[C@@]43C)[C@]1(O)CC[C@@]2(O)[C@@](C)(O)C1CC(C)=C(C)C(=O)O1 (stereo not given in full) | 1.89 µM | > 5 µM | 2.96 µM | > 5 µM | > 5 µM | > 5 µM |  |  |  |  |  | 
CC(=O)OC[C@]12CC[C@H]3[C@@H](C[C@H]4O[C@]45CCCC(=O)[C@]35C)[C@]1(O)CC[C@@]2(O)[C@@](C)(O)C1CC(C)=C(C)C(=O)O1 (stereo not given in full) | 2.56 µM | > 5 µM | > 5 µM | > 5 µM | > 5 µM | > 5 µM |  |  |  |  |  | 
CC(=O)OC[C@]12CC[C@H]3[C@@H](C[C@H]4O[C@]45C(=O)C=CC(=O)[C@]35C)[C@]1(O)CC[C@@]2(O)[C@@](C)(O)C1CC(C)=C(C)C(=O)O1 (stereo not given in full) | > 5 µM | > 5 µM | > 5 µM | > 5 µM | > 5 µM | > 5 µM |  |  |  |  |  | 
CC(=O)OC[C@]12CC[C@H]3[C@@H](C[C@H](O)C4=CC=CC(=O)[C@@]43C)[C@]1(O)CC[C@@]2(O)[C@@](C)(O)C1CC(C)=C(C)C(=O)O1 (stereo not given in full) | > 5 µM | > 5 µM | > 5 µM | > 5 µM | > 5 µM | > 5 µM |  |  |  |  |  | 
CC(=O)OC[C@]12CC[C@H]3[C@@H](C[C@@H](OC(C)=O)C4=CC=CC(=O)[C@@]43C)[C@]1(O)CC[C@@]2(O)[C@@](C)(O)C1CC(C)=C(C)C(=O)O1 (stereo not given in full) | 0.63 µM | > 5 µM | 1 µM | > 5 µM | > 5 µM | > 5 µM |  |  |  |  |  | 
CC(=O)OC[C@]12CC[C@H]3[C@@H](CC(=O)[C@]45O[C@H]4C=CC(=O)[C@]35C)[C@]1(O)CC[C@@]2(O)[C@@](C)(O)C1CC(C)=C(C)C(=O)O1 (stereo not given in full) | > 5 µM | > 5 µM | > 5 µM | > 5 µM | > 5 µM | > 5 µM |  |  |  |  |  | 
CC(=O)OC[C@]12CC[C@H]3[C@@H](CC=C4CC=CC(=O)[C@@]43C)[C@]1(O)CC[C@@]2(O)[C@@](C)(O)C1CC(C)=C(C)C(=O)O1 (stereo not given in full) | 0.13 µM | > 5 µM |  | > 5 µM | > 5 µM | 3.09 µM | 2.81 µM | > 5 µM | > 5 µM | 1.77 µM | > 5 µM | 0.56 µM
